Laboratory results as given in the supplement of paper PMC9663587.

How the values were obtained:
Alpelisib/BYL719 = compound: Cc1nc(NC(=O)N2CCC[C@H]2C(N)=O)sc1-c1ccnc(C(C)(C)C(F)(F)F)c1 [Alpelisib/BYL719]
[1] = compound: CCCCOc1c(C(=O)c2c(F)cc(C)cc2F)c[nH]c2nncc1-2
[2] = compound: CC(=O)Nc1cccc(-n2c(=O)n(C3CC3)c(=O)c3c(Nc4ccc(I)cc4F)n(C)c(=O)c(C)c32)c1
[3] = compound: CNc1nc(-c2ccc3c(N)n[nH]c3c2)cc(N2C[C@@H](C(=O)NC3CCCCC3)CC[C@H]2C)n1
[4] = compound: CO[C@@H](C)Cn1c(=O)n(C)c2cnc3ccc(-c4cncc(C(C)(C)O)c4)cc3c21
Cabozantinib = compound: COc1cc2nccc(Oc3ccc(NC(=O)C4(C(=O)Nc5ccc(F)cc5)CC4)cc3)c2cc1OC [Cabozantinib]
AZD1775 = compound: C=CCn1c(=O)c2cnc(Nc3ccc(N4CCN(C)CC4)cc3)nc2n1-c1cccc(C(C)(C)O)n1 [AZD1775]
Luminespib/NVP-AUY922 = compound: CCNC(=O)c1noc(-c2cc(C(C)C)c(O)cc2O)c1-c1ccc(CN2CCOCC2)cc1 [Luminespib/NVP-AUY922]
Dasatinib = compound: Cc1nc(Nc2ncc(C(=O)Nc3c(C)cccc3Cl)s2)cc(N2CCN(CCO)CC2)n1 [Dasatinib]
TGX221 = compound: CC1=CN2C(=O)C=C(N=C2C(=C1)C(C)NC3=CC=CC=C3)N4CCOCC4 [TGX221]
[5] = compound: CCc1cnn2c(NCc3ccc[n+]([O-])c3)cc(N3CCCC[C@H]3CCO)nc12
AZD2014 = compound: CNC(=O)c1cccc(-c2ccc3c(N4CCOC[C@@H]4C)nc(N4CCOC[C@@H]4C)nc3n2)c1 [AZD2014]
Ipatasertib/GDC0068 = compound: CC(C)NC[C@@H](C(=O)N1CCN(c2ncnc3c2[C@H](C)C[C@H]3O)CC1)c1ccc(Cl)cc1 [Ipatasertib/GDC0068]
AZD6738 = compound: C[C@@H]1COCCN1c1cc(C2([S@](C)(=N)=O)CC2)nc(-c2cc[nH]c3nccc2-3)n1 [AZD6738]
SHP099 = compound: CC1(CCN(CC1)C2=CN=C(C(=N2)N)C3=C(C(=CC=C3)Cl)Cl)N [SHP099]
Olaparib/AZD2281 = compound: O=C(c1cc(Cc2n[nH]c(=O)c3ccccc23)ccc1F)N1CCN(C(=O)C2CC2)CC1 [Olaparib/AZD2281]
Rucaparib = compound: CNCc1ccc(-c2[nH]c3cc(F)cc4c3c2CCNC4=O)cc1 [Rucaparib]
THZ1 = compound: CN(C)C/C=C/C(=O)Nc1ccc(C(=O)Nc2cccc(Nc3ncc(Cl)c(-c4c[nH]c5ccccc45)n3)c2)cc1 [THZ1]
[6] = compound: CCC1=CN=CN=C1N2CCN(CC2)CC3=NC4=C(N3)C=C(C=C4)C(F)(F)F
R0-3306 = compound: C1=CC2=C(C=CC(=C2)C=C3C(=O)NC(=NCC4=CC=CS4)S3)N=C1 [R0-3306]
Flavopiridol = compound: CN1CC[C@H](c2c(O)cc(O)c3c(=O)cc(-c4ccccc4Cl)oc23)[C@H](O)C1 [Flavopiridol]
THZ-P1-2 = compound: CN(C)C/C=C/C(=O)NC1=CC=C(C=C1)C(=O)NC2=CC=CC(=C2)NC3=NC=NC(=C3)C4=CNC5=CC=CC=C54 [THZ-P1-2]
AZD5363 = compound: NC1(C(=O)N[C@@H](CCO)c2ccc(Cl)cc2)CCN(c2nc[nH]c3nccc2-3)CC1 [AZD5363]
senexin b = compound: CN1CCN(C(=O)c2ccc3cc(CCNc4ncnc5ccc(C#N)cc45)ccc3c2)CC1 [senexin b]
Buparlisib/NVP-BKM120 = compound: Nc1cc(C(F)(F)F)c(-c2cc(N3CCOCC3)nc(N3CCOCC3)n2)cn1 [Buparlisib/NVP-BKM120]
Saracatinib/AZD0530 = compound: CN1CCN(CCOc2cc(OC3CCOCC3)c3c(Nc4c(Cl)ccc5c4OCO5)ncnc3c2)CC1 [Saracatinib/AZD0530]
Vorinostat = compound: O=C(CCCCCCC(=O)Nc1ccccc1)NO [Vorinostat]
[7] = compound: CC(=O)c1c(C)c2cnc(Nc3ccc(N4CCNCC4)cn3)nc2n(C2CCCC2)c1=O
Doxorubicin = compound: COc1cccc2c1C(=O)c1c(O)c3c(c(O)c1C2=O)C[C@@](O)(C(=O)CO)C[C@@H]3O[C@H]1C[C@H](N)[C@H](O)[C@H](C)O1 [Doxorubicin]
BVD523 = compound: CC(C)Nc1cc(-c2c[nH]c(C(=O)N[C@H](CO)c3cccc(Cl)c3)c2)c(Cl)cn1 [BVD523]
Cediranib/AZD2171 = compound: COc1cc2c(Oc3ccc4[nH]c(C)cc4c3F)ncnc2cc1OCCCN1CCCC1 [Cediranib/AZD2171]
BSJ-01-175 = compound: CN(C)C/C=C/C(=O)Nc1ccc(O[C@@H]2CCC[C@@H](Nc3ncc(Cl)c(-c4c[nH]c5ccccc45)n3)C2)cc1 [BSJ-01-175]
[8] = compound: Cc1nn(C)c(COc2ccc(N3CCN(S(=O)(=O)N(C)C)CC3)cc2)c1-c1cccc2c(CCCOc3cccc4ccccc34)c(C(=O)O)n(CCN3CCOCC3)c12
AZD7762 = compound: NC(=O)Nc1cc(-c2cccc(F)c2)sc1C(=O)N[C@H]1CCCNC1 [AZD7762]
Torin2 = compound: C1=CC(=CC(=C1)N2C(=O)C=CC3=CN=C4C=CC(=CC4=C32)C5=CN=C(C=C5)N)C(F)(F)F [Torin2]
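Further: breast cancer and non-malignant breast epithelial cell lines, Deep Dye Drop or Dye Drop imaging, nine half-log doses, GR normalized to time-zero plates and DMSO-only controls.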

Row | Cell Line | GR50, 72 h (Alpelisib/BYL719) [µM] | GR50, 72 h [1] [µM] | GR50, 72 h [2] [µM] | GR50, 72 h [3] [µM] | GR50, 72 h [4] [µM] | GR50, 72 h (Cabozantinib) [µM] | GR50, 72 h (AZD1775) [µM] | GR50, 72 h (Luminespib/NVP-AUY922) [µM] | GR50, 72 h (Dasatinib) [µM] | GR50, 72 h (TGX221) [µM] | GR50, 72 h [5] [µM] | GR50, 72 h (AZD2014) [µM] | GR50, 72 h (Ipatasertib/GDC0068) [µM] | GR50, 72 h (AZD6738) [µM] | GR50, 72 h (SHP099) [µM] | GR50, 72 h (Olaparib/AZD2281) [µM] | GR50, 72 h (Rucaparib) [µM] | GR50, 72 h (THZ1) [µM] | GR50, 72 h [6] [µM] | GR50, 72 h (R0-3306) [µM] | GR50, 72 h (Flavopiridol) [µM] | GR50, 72 h (THZ-P1-2) [µM] | GR50, 72 h (AZD5363) [µM] | GR50, 72 h (senexin b) [µM] | GR50, 72 h (Buparlisib/NVP-BKM120) [µM] | GR50, 72 h (Saracatinib/AZD0530) [µM] | GR50, 72 h (Vorinostat) [µM] | GR50, 72 h [7] [µM] | GR50, 72 h (Doxorubicin) [µM] | GR50, 72 h (BVD523) [µM] | GR50, 72 h (Cediranib/AZD2171) [µM] | GR50, 72 h (BSJ-01-175) [µM] | GR50, 72 h [8] [µM] | GR50, 72 h (AZD7762) [µM] | GR50, 72 h (Torin2) [µM]
1 | BT549 | > 10 | 0.00106 | > 1 | > 10 | 0.00122 | > 10 | 0.318 | 0.00539 | 0.592 | > 10 | 0.0124 | 0.157 | > 10 | 3.97 | > 10 | > 10 | > 10 | 0.0528 | > 10 | 5.42 | 0.161 | 7.26 | > 10 | > 10 | 1.42 | > 10 | 2.37 | > 3.16 | 0.00648 | > 10 | 3.64 | 0.737 | > 10 | 0.0668 | 0.00951
2 | CAL120 | > 10 | 2.2 | 0.0468 | > 10 | 0.00177 | 7.34 | 0.197 | 0.00281 | 0.0496 | > 10 | 0.00989 | 0.184 | > 10 | > 10 | > 10 | 5.12 | > 10 | 0.0579 | > 10 | 8.5 | 0.209 | 6.25 | > 10 | > 10 | 0.702 | > 10 | 1.35 | > 3.16 | 0.00944 | 9.62 | 1.04 | 0.0411 | > 10 | 0.156 | 0.0105
3 | SUM159 | > 10 | 0.159 | 0.0316 | > 10 | 0.00127 | 7.15 | 2.05 | 0.00945 | > 10 | > 10 | 0.0169 | 0.176 | > 10 | 9.98 | > 10 | > 10 | > 10 | 0.361 | > 10 | 7.13 | 0.127 | 6.79 | 9.8 | > 10 | 2.21 | > 10 | 3.28 | 1.73 | 0.021 | 1.91 | > 10 | 0.0681 | > 10 | 0.834 | 0.0417
4 | SKBR3 | 0.485 | 0.0869 | > 1 | 2.11 | 0.00188 | 9.69 | 0.206 | 0.00228 | 3.65 | > 10 | 0.00682 | < 0.001 | 3.32 | 0.845 | > 10 | > 10 | > 10 | 0.014 | > 10 | 4.77 | 0.132 | 4.25 | 2.76 | > 10 | 0.14 | 4.92 | 0.767 | 0.176 | 0.00673 | 6.46 | 6.2 | 0.00832 | > 10 | 0.0203 | 0.00361
5 | HS578T | > 10 | 0.0165 | 0.00636 | > 10 | < 0.001 | 6.38 | 0.0155 | 0.0033 | 0.0386 | > 10 | 0.00894 | 0.0683 | 4.59 | 5.26 | > 10 | 8.91 | > 10 | 0.0183 | > 10 | 4.28 | 0.148 | > 10 | 4.82 | > 10 | 0.687 | 4.04 | 0.904 | 0.156 | 0.00411 | 1.14 | 0.551 | 0.0056 | > 10 | 0.0151 | 0.0071
6 | SUM44PE | 0.65 | < 0.001 | > 1 | 4.21 | < 0.001 | 5.47 | 0.237 | 0.00453 |  | > 10 | 0.00834 | 0.00197 | 0.27 | 0.549 | > 10 | > 10 | > 10 | 0.00443 | 6.53 | 1.91 | 0.0276 | 0.196 | 0.0475 | 1.77 | 0.412 | 6.6 | 1.86 | 0.212 | 0.0211 | 2.7 | 9.59 | 0.0082 | 3.31 | 0.0479 | 0.00502
7 | MCF12A | > 10 | 7.57 | 0.00833 | > 10 | 0.167 | > 10 | 1.92 | 0.0103 | 0.209 | > 10 | 0.0371 | 0.0768 | > 10 | 3.06 | > 10 | > 10 | > 10 | 0.15 | > 10 | 9.7 | 0.38 | 8.04 | > 10 | > 10 | 2.84 | 9.02 | 6.67 | > 3.16 | 0.0155 | 5.73 | > 10 | 4.32 | > 10 | 0.129 | 0.0424
